Source: ChEMBL document CHEMBL5236587, “Discovery of oxazoline enhancers of cellular progranulin release” (Bioorg Med Chem Lett, 2023)

What was measured:
[1] = Induction of progranulin secretion in mouse BV-2 cells; type: functional, cell-based
[2] = target: Voltage-gated inwardly rectifying potassium channel KCNH2 (Homo sapiens, UniProt Q12809); assay: Inhibition of human ERG; type: toxicity
[3] = Metabolic stability in mouse hepatocytes assessed as intrinsic clearance; type: ADME, cell-based, Hepatocyte
[4] = Half life in mouse at 10 mg/kg, po; type: ADME, organism-based; conditions: in vivo
[5] = Half life in mouse at 1 mg/kg, iv; type: ADME, organism-based; conditions: in vivo
[6] = Efflux ratio of apparent permeability in MDCK-MDR1 cells; type: ADME, cell-based, Canis lupus familiaris; conditions: dog
[7] = Metabolic stability in mouse hepatocytes assessed as half life measured upto 120 mins; type: ADME, cell-based, Hepatocyte
[8] = Volume of distribution at steady state in mouse at 10 mg/kg, po or 1 mg/kg, iv; type: ADME, organism-based; conditions: in vivo
[9] = Metabolic stability in human hepatocytes assessed as half life measured upto 120 mins; type: ADME, cell-based, Hepatocyte
[10] = Protein binding in mouse brain assessed as unbound fraction; type: ADME, tissue-based
[11] = Metabolic stability in human hepatocytes assessed as intrinsic clearance; type: ADME, cell-based, Hepatocyte
[12] = Clearance in mouse at 10 mg/kg, po or 1 mg/kg, iv; type: ADME, organism-based; conditions: in vivo
[13] = Bioavailability in mouse at 10 mg/kg, po or 1 mg/kg, iv; type: ADME, organism-based; conditions: in vivo
[14] = Apparent permeability across apical to basolateral side in MDCK-MDR1 cells; type: ADME, cell-based, Canis lupus familiaris; conditions: dog
[15] = Protein binding in human assessed as unbound fraction; type: ADME
[16] = Unbound Cmax in mouse at 10 mg/kg, po or 1 mg/kg, iv; type: ADME, organism-based; conditions: in vivo
[17] = Protein binding in mouse assessed as unbound fraction; type: ADME
[18] = Unbound brain to plasma partition coefficient in mouse at 10 mg/kg, po or 1 mg/kg, iv after 8 hrs; type: ADME, organism-based; conditions: read-out: K(p,uu,brain)

Sequence of Voltage-gated inwardly rectifying potassium channel KCNH2 (Q12809 whole entry): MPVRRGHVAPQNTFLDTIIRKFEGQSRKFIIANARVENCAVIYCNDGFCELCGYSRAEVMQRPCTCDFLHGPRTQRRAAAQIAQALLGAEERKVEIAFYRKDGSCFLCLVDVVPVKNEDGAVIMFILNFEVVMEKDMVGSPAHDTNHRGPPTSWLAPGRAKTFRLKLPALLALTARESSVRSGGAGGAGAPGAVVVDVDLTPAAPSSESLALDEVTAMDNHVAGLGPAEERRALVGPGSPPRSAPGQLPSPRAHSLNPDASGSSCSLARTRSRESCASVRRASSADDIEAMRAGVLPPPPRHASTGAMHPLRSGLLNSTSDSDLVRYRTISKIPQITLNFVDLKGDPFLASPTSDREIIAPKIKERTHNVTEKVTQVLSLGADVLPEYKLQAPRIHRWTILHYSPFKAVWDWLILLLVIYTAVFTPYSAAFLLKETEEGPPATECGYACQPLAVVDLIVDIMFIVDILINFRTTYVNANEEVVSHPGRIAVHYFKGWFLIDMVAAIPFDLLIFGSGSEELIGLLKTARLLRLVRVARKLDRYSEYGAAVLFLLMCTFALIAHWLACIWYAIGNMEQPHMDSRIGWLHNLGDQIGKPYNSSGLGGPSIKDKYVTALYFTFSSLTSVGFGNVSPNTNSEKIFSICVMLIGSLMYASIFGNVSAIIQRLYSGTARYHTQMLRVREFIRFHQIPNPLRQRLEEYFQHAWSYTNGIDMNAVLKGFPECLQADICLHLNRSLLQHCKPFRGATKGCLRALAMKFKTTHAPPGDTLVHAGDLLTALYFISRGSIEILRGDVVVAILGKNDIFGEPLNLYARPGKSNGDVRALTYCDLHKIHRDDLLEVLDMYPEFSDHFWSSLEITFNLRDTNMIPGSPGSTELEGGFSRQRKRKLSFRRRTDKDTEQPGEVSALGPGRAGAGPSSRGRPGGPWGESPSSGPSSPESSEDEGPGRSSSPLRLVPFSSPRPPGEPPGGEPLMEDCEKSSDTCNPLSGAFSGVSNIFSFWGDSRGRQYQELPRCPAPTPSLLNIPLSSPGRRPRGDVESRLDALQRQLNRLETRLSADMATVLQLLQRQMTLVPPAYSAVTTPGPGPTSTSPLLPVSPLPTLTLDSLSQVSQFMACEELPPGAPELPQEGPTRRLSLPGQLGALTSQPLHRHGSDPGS

Row | SMILES | EC50 [1] | IC50 [2] | further results
1 | Fc1ccc([C@H]2c3ccccc3CCN2C2=NC[C@@H]3NCC[C@@H]3O2)cc1 | 455 nM | – | –
2 | Fc1ccc([C@H]2c3ccccc3CCN2C2=NC[C@H]3NCC[C@H]3O2)cc1 | 423 nM | – | –
3 | CN(C)[C@H]1C[C@]2(CN=C(N3CCc4ccccc4[C@@H]3c3ccc(F)cc3)O2)C1 | 3580 nM | – | –
4 | N[C@H]1C[C@@]2(COC(N3CCc4ccccc4[C@@H]3c3ccc(F)cc3)=N2)C1 | 639 nM | – | –
5 | OCCN1CC[C@@]2(CN=C(N3CCc4ccccc4[C@@H]3c3ccc(F)cc3)O2)C1 | 318 nM | 4400 nM | CLH [3]: 22.25 µL/min/mg; half-life [4]: 3.3 h; half-life [5]: 2.1 h; efflux ratio [6]: 1.52; half-life [7]: 0.517 h; Vdss [8]: 18.5 L/kg; half-life [9]: > 2 h; fraction unbound [10]: 0.042; fraction unbound [15]: 0.151; fCmax [16]: 8 nM; fraction unbound [17]: 0.091; CLH [11]: < 14.7 µL/min/mg; CL [12]: 129 mL/min/kg; Kp uu at 8 h [18]: 3.84; bioavailability [13]: 6.1%; Papp A→B [14]: 2.2 ×10⁻⁶ cm/s
6 | Fc1ccc([C@H]2c3ccccc3CCN2C2=NC[C@H]3CNCC[C@@H]3O2)cc1 | 1550 nM | – | –
7 | Fc1ccc([C@H]2c3ccccc3CCN2C2=NC[C@H](C3CN4CCC3(F)CC4)O2)cc1 (some centres undefined) | > 10000 nM | – | –
8 | Fc1ccc([C@H]2c3ccccc3CCN2C2=NC[C@H](C3CN4CCC3CC4)O2)cc1 (some centres undefined) | 387 nM | 680 nM | –
9 | Fc1ccc([C@H]2c3ccccc3CCN2C2=NC[C@@]3(CCCNC3)O2)cc1 | 502 nM | – | –
10 | Fc1ccc([C@H]2c3ccccc3CCN2C2=NC[C@@H]3CNC[C@@H]3O2)cc1 | 950 nM | – | –
11 | N[C@H]1C[C@@]2(CN=C(N3CCc4ccccc4[C@@H]3c3ccc(F)cc3)O2)C1 | 522 nM | – | –
12 | CN1CCCC2(COC(N3CCc4ccccc4[C@@H]3c3ccc(F)cc3)=N2)C1 (some centres undefined) | 796 nM | – | –
13 | Fc1ccc([C@H]2c3ccccc3CCN2C2=NC[C@H]3CNCC[C@H]3O2)cc1 | 335 nM | – | –
14 | NC[C@H]1C[C@@]2(CN=C(N3CCc4ccccc4[C@@H]3c3ccc(F)cc3)O2)C1 | 993 nM | – | –
15 | Fc1ccc([C@H]2c3ccccc3CCN2C2=NC[C@@H](C3CN4CCC3(F)CC4)O2)cc1 (some centres undefined) | 382 nM | – | –
16 | Fc1ccc([C@H]2c3ccccc3CCN2C2=N[C@H]3CNC[C@H]3O2)cc1 | 517 nM | – | –
17 | Fc1ccc([C@H]2c3ccccc3CCN2C2=NC[C@@H]3NCC[C@H]3O2)cc1 | 659 nM | – | –
18 | Fc1ccc([C@H]2c3ccccc3CCN2C2=N[C@H](C3CN4CCC3CC4)CO2)cc1 (some centres undefined) | 126 nM | – | –
19 | Fc1ccc([C@H]2c3ccccc3CCN2C2=N[C@@H]3CNC[C@@H]3O2)cc1 | 674 nM | – | –
20 | CN1CCC2(CC1)COC(N1CCc3ccccc3[C@@H]1c1ccc(F)cc1)=N2 | 7030 nM | – | –
21 | Fc1ccc([C@H]2c3ccccc3CCN2C2=NC[C@@H]([C@H]3CCNC3)O2)cc1 | 244 nM | 3900 nM | –
22 | Fc1ccc([C@H]2c3ccccc3CCN2C2=N[C@H]3CNC[C@H]3CO2)cc1 | 275 nM | 3300 nM | –
23 | Fc1ccc([C@H]2c3ccccc3CCN2C2=N[C@@H](C3CN4CCC3CC4)CO2)cc1 (some centres undefined) | 231 nM | – | –
24 | Fc1ccc([C@H]2c3ccccc3CCN2C2=NC[C@@H](C3CN4CCC3CC4)O2)cc1 (some centres undefined) | 218 nM | 690 nM | CLH [3]: 147.03 µL/min/mg; half-life [4]: 11.4 h; half-life [5]: 4.17 h; efflux ratio [6]: 2.12; half-life [7]: 0.0785 h; Vdss [8]: 38.8 L/kg; half-life [9]: 0.242 h; fraction unbound [10]: 0.02; fraction unbound [15]: 0.141; fCmax [16]: 6 nM; fraction unbound [17]: 0.056; CLH [11]: 47.79 µL/min/mg; CL [12]: 156 mL/min/kg; Kp uu at 8 h [18]: 2.7; bioavailability [13]: 25%; Papp A→B [14]: 3.07 ×10⁻⁶ cm/s

The remaining compounds from weak to strong by EC50 [1], led by results:

Row | EC50 [1] | SMILES | IC50 [2] | further results
25 | 237 nM | CN(C)[C@H]1CC[C@@]2(CN=C(N3CCc4ccccc4[C@@H]3c3ccc(F)cc3)O2)C1 | 3600 nM | –
26 | 236 nM | N[C@@H]1CC[C@]2(CN=C(N3CCc4ccccc4[C@@H]3c3ccc(F)cc3)O2)C1 | – | –
27 | 230 nM | OCCN1CC[C@H]2OC(N3CCc4ccccc4[C@@H]3c3ccc(F)cc3)=NC[C@H]2C1 | – | –
28 | 209 nM | CN(C)[C@H]1C[C@@]2(CN=C(N3CCc4ccccc4[C@@H]3c3ccc(F)cc3)O2)C1 | 7000 nM | –
29 | 208 nM | Fc1ccc([C@H]2c3ccccc3CCN2C2=NC[C@H]([C@@H]3CCNC3)O2)cc1 | 6700 nM | –
30 | 206 nM | NC[C@H]1C[C@]2(CN=C(N3CCc4ccccc4[C@@H]3c3ccc(F)cc3)O2)C1 | – | –
31 | 204 nM | N[C@H]1CC[C@@]2(COC(N3CCc4ccccc4[C@@H]3c3ccc(F)cc3)=N2)C1 | – | –
32 | 192 nM | Fc1ccc([C@H]2c3ccccc3CCN2C2=NC[C@H](C3(F)CNC3)O2)cc1 | 11000 nM | –
33 | 181 nM | OCCCN1CC[C@@]2(CN=C(N3CCc4ccccc4[C@@H]3c3ccc(F)cc3)O2)C1 | 4800 nM | –
34 | 176 nM | CN1CC[C@@]2(CN=C(N3CCc4ccccc4[C@@H]3c3ccc(F)cc3)O2)C1 | 1700 nM | –
35 | 160 nM | N[C@H]1CC[C@]2(COC(N3CCc4ccccc4[C@@H]3c3ccc(F)cc3)=N2)C1 | – | –
36 | 157 nM | Fc1ccc([C@H]2c3ccccc3CCN2C2=NC3(CCNCC3)CO2)cc1 | – | –
37 | 137 nM | CN(C)[C@H]1CC[C@]2(CN=C(N3CCc4ccccc4[C@@H]3c3ccc(F)cc3)O2)C1 | 7800 nM | –
38 | 132 nM | Fc1ccc([C@H]2c3ccccc3CCN2C2=NC[C@@H](C3(F)CNC3)O2)cc1 | 3600 nM | CLH [3]: < 68.2 µL/min/mg; half-life [4]: 2.6 h; half-life [5]: 2.2 h; efflux ratio [6]: 1.07; half-life [7]: > 2 h; Vdss [8]: 12.2 L/kg; half-life [9]: > 2 h; fraction unbound [10]: 0.01; fraction unbound [15]: 0.068; fCmax [16]: 11 nM; fraction unbound [17]: 0.021; CLH [11]: < 14.7 µL/min/mg; CL [12]: 89.3 mL/min/kg; Kp uu at 8 h [18]: 8.33; bioavailability [13]: 38%; Papp A→B [14]: 0.87 ×10⁻⁶ cm/s
39 | 127 nM | N[C@H]1CC[C@@]2(CN=C(N3CCc4ccccc4[C@@H]3c3ccc(F)cc3)O2)C1 | – | –
40 | 119 nM | N[C@@H]1CC[C@@]2(CN=C(N3CCc4ccccc4[C@@H]3c3ccc(F)cc3)O2)C1 | 8800 nM | –
41 | 119 nM | Fc1ccc([C@H]2c3ccccc3CCN2C2=N[C@@H](C3(F)CNC3)CO2)cc1 | 10000 nM | –

Row | EC50 [1] | SMILES | IC50 [2] | further results
42 | 111 nM | Fc1ccc([C@H]2c3ccccc3CCN2C2=NC[C@H]3CNC[C@H]3O2)cc1 | 5100 nM | –
43 | 110 nM | N[C@H]1CC[C@]2(CN=C(N3CCc4ccccc4[C@@H]3c3ccc(F)cc3)O2)C1 | – | –
44 | 109 nM | Fc1ccc([C@H]2c3ccccc3CCN2C2=NC[C@H](C3CNC3)O2)cc1 | 2200 nM | –
45 | 97 nM | Fc1ccc([C@H]2c3ccccc3CCN2C2=NC[C@@H](C3CNC3)O2)cc1 | 6200 nM | –
46 | 85 nM | Fc1ccc([C@H]2c3ccccc3CCN2C2=NC[C@H]([C@H]3CCNC3)O2)cc1 | 2300 nM | –
47 | 85 nM | Fc1ccc([C@H]2c3ccccc3CCN2C2=N[C@]3(CCCNC3)CO2)cc1 | – | –
48 | 83 nM | Fc1ccc([C@H]2c3ccccc3CCN2C2=N[C@H](C3(F)CNC3)CO2)cc1 | 3100 nM | CLH [3]: < 68.2 µL/min/mg; half-life [4]: 4.8 h; half-life [5]: 7.4 h; efflux ratio [6]: 1.11; half-life [7]: > 2 h; Vdss [8]: 15.2 L/kg; half-life [9]: > 2 h; fraction unbound [10]: 0.009; fraction unbound [15]: 0.055; fCmax [16]: 62 nM; fraction unbound [17]: 0.031; CLH [11]: < 14.7 µL/min/mg; CL [12]: 34.7 mL/min/kg; Kp uu at 8 h [18]: 2.91; bioavailability [13]: 99%; Papp A→B [14]: 0.53 ×10⁻⁶ cm/s
49 | 69 nM | CN1CC[C@]2(CN=C(N3CCc4ccccc4[C@@H]3c3ccc(F)cc3)O2)C1 | 510 nM | –
50 | 64 nM | Fc1ccc([C@H]2c3ccccc3CCN2C2=NC[C@]3(CCCNC3)O2)cc1 | – | –
51 | 59 nM | Fc1ccc([C@H]2c3ccccc3CCN2C2=NCC3(CCNCC3)O2)cc1 | – | –
52 | 57 nM | Fc1ccc([C@H]2c3ccccc3CCN2C2=NC[C@@H]3CNCC[C@@H]3O2)cc1 | 21000 nM | efflux ratio [6]: 9.04; fraction unbound [10]: 0.009; fraction unbound [15]: 0.375; fraction unbound [17]: 0.253; Papp A→B [14]: 1.4 ×10⁻⁶ cm/s
53 | 55 nM | Fc1ccc([C@H]2c3ccccc3CCN2C2=NC[C@@H]([C@@H]3CCNC3)O2)cc1 | 5400 nM | –
54 | 38 nM | Fc1ccc([C@H]2c3ccccc3CCN2C2=NC[C@@]3(CCNC3)O2)cc1 | 4800 nM | CLH [3]: < 68.2 µL/min/mg; half-life [4]: 11.9 h; half-life [5]: 15.6 h; efflux ratio [6]: 3.09; half-life [7]: > 2 h; Vdss [8]: 57.2 L/kg; half-life [9]: > 2 h; fraction unbound [10]: 0.041; CLH [11]: < 14.7 µL/min/mg; CL [12]: 49.8 mL/min/kg; bioavailability [13]: 74%; Papp A→B [14]: 3 ×10⁻⁶ cm/s
55 | 38 nM | Fc1ccc([C@H]2c3ccccc3CCN2C2=N[C@@]3(CCCNC3)CO2)cc1 | – | –
56 | 37 nM | OCCN1CC[C@@H]2OC(N3CCc4ccccc4[C@@H]3c3ccc(F)cc3)=NC[C@@H]2C1 | – | –
57 | 35 nM | Fc1ccc([C@H]2c3ccccc3CCN2C2=NC[C@@H]3CNCC[C@H]3O2)cc1 | 3100 nM | –
58 | 21 nM | Fc1ccc([C@H]2c3ccccc3CCN2C2=NC[C@]3(CCNC3)O2)cc1 | – | –
